Laboratory results published in patent publication US11753446B2, “Beta-hairpin peptidomimetics” (POLYPHOR AG, priority 2014, dated 2023).
Like-named read-outs stand apart in the source and are kept apart here. Where a SMILES comes first, the peptide text is derived from it. Bridges are numbered along the chain shown (N, C = ends). [ ]: non-standard residue; d: D form. dPen = CC(C)(S)[C@@H](N)C(=O)O; Chg = N[C@H](C(=O)O)C1CCCCC1; Tle = CC(C)(C)[C@H](N)C(=O)O; dDab = NCC[C@@H](N)C(=O)O; Orn = NCCC[C@H](N)C(=O)O; Dab = NCC[C@H](N)C(=O)O; Dap = NC[C@H](N)C(=O)O

How the values were obtained:
[1] = test system: Acinetobacter baumannii DSM 30008; type: cell-based
Protocol: (§1) Stock solutions were kept at +4° C., light protected.
(§2) The selective antimicrobial activities of the peptides were determined in 96-well plates (Greiner, polystyrene) by the standard NCCLS broth microdilution method (National Committee for Clinical Laboratory Standards 1993. Methods for dilution antimicrobial susceptibility tests for bacteria that grow aerobically, 3rd ed. Approved standard M7-A6; National Committee for Clinical laboratory standards, Wayne, Pa.) with slight modifications. Inocula of the microorganisms were diluted into Mueller-Hinton II (MH, cation adjusted) broth and compared with a 0.5 McFarland standard to give appr. 10^6 colony forming units (CFU)/mL. Aliquots (90 μl) of inoculate were added to 10 μl of MH broth+P-80 (Polysorbate 80, 0.002% final concentration) containing the peptide in serial two-fold dilutions. The following microorganisms were used to determine antibiotic selectivity of the peptides: Escherichia coli ATCC 25922, Klebsiella pneumoniae ATCC 13883 and Acinetobacter baumannii DSM 30008.

[2] = test system: Escherichia coli ATCC 25922; type: cell-based
Protocol: as §1, §2

[3] = test system: Klebsiella pneumoniae ATCC 13883; type: cell-based
Protocol: as §1, §2

[4] = test system: human red blood cells (hRBC); assay: Hemolysis: hemolytic activity at 100 μg/mL, 1 h at 37° C.
Protocol: Lyophilized peptides were weighed on a Microbalance (Mettler MT5) and dissolved in sterile water to a final concentration of 1 mg/mL. Stock solutions were kept at +4° C., light protected.
The peptides were tested for their hemolytic activity against human red blood cells (hRBC). Fresh hRBC were washed three times with phosphate buffered saline (PBS) and centrifuged for 5 min at 3000×g. Compounds (100 μg/mL) were incubated with 20% hRBC (v/v) for 1 h at 37° C. and shaking at 300 rpm. The final erythrocyte concentration was approximately 0.9×10^9 cells/mL. A value of 0% and 100% cell lyses, respectively, was determined by incubation of hRBC in the presence of PBS containing 0.001% acetic acid and 2.5% Triton X-100 in H2O, respectively. The samples were centrifuged, the supernatants were 8-fold diluted in PBS buffer and the optical densities (OD) were measured at 540 nm.
Percent hemolysis was calculated as follows: (OD540peptide/OD540H2O)×100%.

[5] = Mueller-Hinton II broth, 18-20 hours at 35° C.
[6] = 100 μg/mL, 20% hRBC, 1 h at 37° C.

Compound	Acinetobacter baumannii DSM 30008 MIC [1, 5]	Escherichia coli ATCC 25922 MIC [2, 5]	Klebsiella pneumoniae ATCC 13883 MIC [3, 5]	Hemolysis at 100 μg/mL [4, 6]	Acinetobacter baumannii DSM 30008 MIC ([1]; DSM 30008)	Escherichia coli ATCC 25922 MIC ([2]; ATCC 25922)	Klebsiella pneumoniae ATCC 13883 MIC ([3]; ATCC 13883)	Hemolysis at 100 μg/mL ([4]; red cells of human, 1 h, 100)
CC(C)C[C@@H]1NC(=O)[C@H](CCCNC(=N)N)NC(=O)[C@H]2CCCN2C(=O)[C@H](C(C)C)NC(=O)[C@@H]2CSSC[C@H](NC1=O)C(=O)N[C@@H](Cc1ccc(O)cc1)C(=O)N[C@@H](C)C(=O)N[C@@H](CCN)C(=O)N[C@@H](CCN)C(=O)N[C@@H](CCN)C(=O)N[C@@H](Cc1c[nH]c3ccccc13)C(=O)N[C@@H](C)C(=O)N[C@@H](C(C)C)C(=O)N2 [Example 1, cyclo(-Leu-Cys-Tyr-Ala-Dab-Dab-Dab-Trp-Ala-Val-Cys-Val-^DPro-Arg-)] (HELM PEPTIDE1{A.[Dab].[Dab].[Dab].W.A.V.C.V.[dP].R.L.C.Y}$PEPTIDE1,PEPTIDE1,8:R3-13:R3|PEPTIDE1,PEPTIDE1,1:R1-14:R2$$$V2.0)	0.75 µg/mL	2 µg/mL	1 µg/mL	5%				
CC(C)C[C@@H]1NC(=O)[C@H](CCCNC(=N)N)NC(=O)[C@@H](CCN)NC(=O)[C@H](C(C)(C)C)NC(=O)[C@@H]2CSSC[C@H](NC1=O)C(=O)N[C@@H](Cc1ccc(O)cc1)C(=O)N[C@@H](CC(N)=O)C(=O)N[C@@H](CCCN)C(=O)N[C@H](CCN)C(=O)N[C@@H](CCN)C(=O)N[C@@H](Cc1c[nH]c3ccccc13)C(=O)N[C@@H](CO)C(=O)N[C@@H](Cc1ccc(O)cc1)C(=O)N2 [Example 64, cyclo(-Leu-Cys-Tyr-Asn-Orn-^DDab-Dab-Trp-Ser-Tyr-Cys-tBuGly-^DDab-Arg-)] (cyclo(C[Tle][dDab]RLCYN[Orn][dDab][Dab]WSY); disulfide 1-6)	1.125 µg/mL	1 µg/mL	1 µg/mL	1%				
CC(C)C[C@@H]1NC(=O)[C@H](CCCNC(=N)N)NC(=O)[C@@H](CCN)NC(=O)[C@H](C(C)C)NC(=O)[C@@H]2CSSC[C@H](NC1=O)C(=O)N[C@@H](Cc1ccc(O)cc1)C(=O)N[C@@H](CC(N)=O)C(=O)N[C@@H](CCCN)C(=O)N[C@H](CCN)C(=O)N[C@@H](CCN)C(=O)N[C@@H](Cc1c[nH]c3ccccc13)C(=O)N[C@@H](CO)C(=O)N[C@@H](Cc1ccc(O)cc1)C(=O)N2 [Example 10, cyclo(-Leu-Cys-Tyr-Asn-Orn-^DDab-Dab-Trp-Ser-Tyr-Cys-Val-^DDab-Arg-)] (HELM PEPTIDE1{C.V.[NCC[C@@H](N[*:1])C(=O)[*:2]].R.L.C.Y.N.[Orn].[NCC[C@@H](N[*:1])C(=O)[*:2]].[Dab].W.S.Y}$PEPTIDE1,PEPTIDE1,1:R3-6:R3|PEPTIDE1,PEPTIDE1,1:R1-14:R2$$$V2.0)					0.5 µg/mL	0.5 µg/mL	1 µg/mL	1%
CC(C)C[C@@H]1NC(=O)[C@H](CCN)NC(=O)[C@@H](CCN)NC(=O)[C@H]([C@@H](C)O)NC(=O)[C@@H]2CSSC[C@H](NC1=O)C(=O)N[C@@H](Cc1ccc(O)cc1)C(=O)N[C@@H](CC(N)=O)C(=O)N[C@@H](CCCN)C(=O)N[C@H](CCN)C(=O)N[C@@H](CCN)C(=O)N[C@@H](Cc1c[nH]c3ccccc13)C(=O)N[C@@H](CO)C(=O)N[C@@H](Cc1ccc(O)cc1)C(=O)N2 [Example 7, cyclo(-Leu-Cys-Tyr-Asn-Orn-^DDab-Dab-Trp-Ser-Tyr-Cys-Thr-^DDab-Dab-)] (HELM PEPTIDE1{C.T.[NCC[C@@H](N[*:1])C(=O)[*:2]].[Dab].L.C.Y.N.[Orn].[NCC[C@@H](N[*:1])C(=O)[*:2]].[Dab].W.S.Y}$PEPTIDE1,PEPTIDE1,1:R3-6:R3|PEPTIDE1,PEPTIDE1,1:R1-14:R2$$$V2.0)					2 µg/mL	2 µg/mL	1 µg/mL	1%
CC[C@H](C)[C@@H]1NC(=O)[C@@H]2CCCN2C(=O)[C@@H](CCN)NC(=O)[C@H](CO)NC(=O)[C@@H]2CSSC[C@H](NC1=O)C(=O)N[C@@H](Cc1ccc(O)cc1)C(=O)N[C@@H](CCN)C(=O)N[C@@H](CCCN)C(=O)N[C@H](CCN)C(=O)N[C@@H](CCN)C(=O)N[C@@H](Cc1c[nH]c3ccccc13)C(=O)N[C@@H](CCN)C(=O)N[C@@H](C(C)(C)C)C(=O)N2 [Example 14, cyclo(-Ile-Cys-Tyr-Dab-Orn-^DDab-Dab-Trp-Dab-tBuGly-Cys-Ser-^DDab-Pro-)] (cyclo(CS[dDab]PICY[Dab][Orn][dDab][Dab]W[Dab][Tle]); disulfide 1-6)					1 µg/mL	0.5 µg/mL	1 µg/mL	1%
CC(C)C[C@@H]1NC(=O)[C@H](CCN)NC(=O)[C@@H](CCN)NC(=O)[C@H](C(C)C)NC(=O)[C@@H]2CSSC[C@H](NC1=O)C(=O)N[C@@H](Cc1ccc(O)cc1)C(=O)N[C@@H](CC(N)=O)C(=O)N[C@@H](CCCN)C(=O)N[C@H](CCN)C(=O)N[C@@H](CCN)C(=O)N[C@@H](Cc1c[nH]c3ccccc13)C(=O)N[C@@H](CC(N)=O)C(=O)N[C@@H](Cc1ccc(O)cc1)C(=O)N2 [Example 54, cyclo(-Leu-Cys-Tyr-Asn-Orn-^DDab-Dab-Trp-Asn-Tyr-Cys-Val-^DDab-Dab-)] (HELM PEPTIDE1{C.V.[NCC[C@@H](N[*:1])C(=O)[*:2]].[Dab].L.C.Y.N.[Orn].[NCC[C@@H](N[*:1])C(=O)[*:2]].[Dab].W.N.Y}$PEPTIDE1,PEPTIDE1,1:R3-6:R3|PEPTIDE1,PEPTIDE1,1:R1-14:R2$$$V2.0)					1.25 µg/mL	0.75 µg/mL	1 µg/mL	3%
C[C@@H]1NC(=O)[C@H](C(C)(C)C)NC(=O)[C@H](CCN)NC(=O)[C@H](Cc2c[nH]c3ccccc23)NC(=O)[C@H](CCN)NC(=O)[C@@H](CCN)NC(=O)[C@H](CCCN)NC(=O)[C@H](CCN)NC(=O)[C@H](Cc2ccc(O)cc2)NC(=O)[C@H](CN)NC(=O)[C@H](Cc2ccccc2)NC(=O)[C@@H]2CCCN2C(=O)[C@@H](CCN)NC(=O)[C@H](CO)NC1=O [Example 50, cyclo(-Phe-Dap-Tyr-Dab-Orn-^DDab-Dab-Trp-Dab-tBuGly-Ala-Ser-^DDab-Pro-)] (cyclo(AS[dDab]PF[Dap]Y[Dab][Orn][dDab][Dab]W[Dab][Tle]))					2 µg/mL	1 µg/mL	0.5 µg/mL	11%
CC(C)C[C@@H]1NC(=O)[C@H](CCCNC(=N)N)NC(=O)[C@H]2CCCN2C(=O)[C@H](C(C)C)NC(=O)[C@@H]2CSSC[C@H](NC1=O)C(=O)N[C@@H](Cc1ccc(O)cc1)C(=O)N[C@@H](C)C(=O)N[C@@H](CCN)C(=O)N[C@H](CCN)C(=O)N[C@@H](CCN)C(=O)N[C@@H](Cc1c[nH]c3ccccc13)C(=O)N[C@@H](C)C(=O)N[C@@H](C(C)C)C(=O)N2 [Example 2, cyclo(-Leu-Cys-Tyr-Ala-Dab-^DDab-Dab-Trp-Ala-Val-Cys-Val-^DPro-Arg-)] (HELM PEPTIDE1{A.[Dab].[NCC[C@@H](N[*:1])C(=O)[*:2]].[Dab].W.A.V.C.V.[dP].R.L.C.Y}$PEPTIDE1,PEPTIDE1,8:R3-13:R3|PEPTIDE1,PEPTIDE1,1:R1-14:R2$$$V2.0)					2.5 µg/mL	4 µg/mL	2 µg/mL	5%
CC(C)C[C@@H]1NC(=O)[C@@H]2CCCN2C(=O)[C@H]2CCCN2C(=O)[C@H](CO)NC(=O)[C@@H]2NC(=O)[C@H](C3CCCCC3)NC(=O)[C@H](CCN)NC(=O)[C@H](Cc3c[nH]c4ccccc34)NC(=O)[C@H](CCN)NC(=O)[C@@H](CCN)NC(=O)[C@H](CCCN)NC(=O)[C@H](CCN)NC(=O)[C@H](C(C)(C)C)NC(=O)[C@H](NC1=O)C(C)(C)SSC2(C)C [Example 33, cyclo(-Leu-Pen-tBuGly-Dab-Orn-DDab-Dab-Trp-Dab-Chg-Pen-Ser-^DPro-Pro-)] (cyclo(L[dPen][Tle][Dab][Orn][dDab][Dab]W[Dab][Chg][dPen]S[dP]P); disulfide 2-11)					1 µg/mL	1 µg/mL	2 µg/mL	1%
